For assay [1], the target named is T1, chymotrypsin (Bos taurus, UniProt P00766). The assay is described as follows: Inhibition of chymotrypsin, residual activity with GPNA substrate. Particulars: pH 7.6, from fitted inhibition curves (GRAFIT), read-out: Inhibition constant Ki against chymotrypsin. Type of assay: biochemical. As for the experimental part:
(§1) The inhibitory activities of BTCI, PepTry and PepChy against trypsin and chymotrypsin activities were assayed using the substrates Na-benzoyl-DL-arginine-p-nitroanilide (BAPNA) and n-glutaryl-L-phenylalanine-p-nitroanilide (GPNA), respectively (Sigma)[19],[39]. Enzymatic assays were performed in 50 mM Tris-HCl, CaCl2 20 mM pH 7.6 for chymotrypsin or pH 8.2 for trypsin. Forty μL of BTCI and PepTry (0 to 20 μM) and BTCI and PepChy (0 to 50 μM) were incubated with 40 μL of trypsin (2.57 µM) or chymotrypsin (28.60 µM), respectively, in a 96-well plate at room temperature for 15 minutes. Then, 200 μL BAPNA (0.064 mg/mL) or GPNA (0.8 mg/mL) were added. The reaction was stopped by addition of 30 μL 30% acetic acid (v/v). Enzymatic hydrolysis of the substrate was evaluated by recording the absorbance at 410 nm. The residual activities of the enzymes, in the presence of inhibitors, were estimated considering the free enzyme activity to be 100%. Inhibition constants of the enzyme-inhibitor complexes, Ki, were calculated from fitted inhibition curves[70] using the GRAFIT program version 3 (Erithacus Software, Horley, Surrey, United Kingdom).

Assay [2] addresses T2, angiotensin converting enzyme (ACE) (Oryctolagus cuniculus, UniProt P12822).
T2 construct: ACE stock solution was obtained from rabbit lung; from tissue; host or cells: rabbit lung
T2 sequence (P12822 34-1310): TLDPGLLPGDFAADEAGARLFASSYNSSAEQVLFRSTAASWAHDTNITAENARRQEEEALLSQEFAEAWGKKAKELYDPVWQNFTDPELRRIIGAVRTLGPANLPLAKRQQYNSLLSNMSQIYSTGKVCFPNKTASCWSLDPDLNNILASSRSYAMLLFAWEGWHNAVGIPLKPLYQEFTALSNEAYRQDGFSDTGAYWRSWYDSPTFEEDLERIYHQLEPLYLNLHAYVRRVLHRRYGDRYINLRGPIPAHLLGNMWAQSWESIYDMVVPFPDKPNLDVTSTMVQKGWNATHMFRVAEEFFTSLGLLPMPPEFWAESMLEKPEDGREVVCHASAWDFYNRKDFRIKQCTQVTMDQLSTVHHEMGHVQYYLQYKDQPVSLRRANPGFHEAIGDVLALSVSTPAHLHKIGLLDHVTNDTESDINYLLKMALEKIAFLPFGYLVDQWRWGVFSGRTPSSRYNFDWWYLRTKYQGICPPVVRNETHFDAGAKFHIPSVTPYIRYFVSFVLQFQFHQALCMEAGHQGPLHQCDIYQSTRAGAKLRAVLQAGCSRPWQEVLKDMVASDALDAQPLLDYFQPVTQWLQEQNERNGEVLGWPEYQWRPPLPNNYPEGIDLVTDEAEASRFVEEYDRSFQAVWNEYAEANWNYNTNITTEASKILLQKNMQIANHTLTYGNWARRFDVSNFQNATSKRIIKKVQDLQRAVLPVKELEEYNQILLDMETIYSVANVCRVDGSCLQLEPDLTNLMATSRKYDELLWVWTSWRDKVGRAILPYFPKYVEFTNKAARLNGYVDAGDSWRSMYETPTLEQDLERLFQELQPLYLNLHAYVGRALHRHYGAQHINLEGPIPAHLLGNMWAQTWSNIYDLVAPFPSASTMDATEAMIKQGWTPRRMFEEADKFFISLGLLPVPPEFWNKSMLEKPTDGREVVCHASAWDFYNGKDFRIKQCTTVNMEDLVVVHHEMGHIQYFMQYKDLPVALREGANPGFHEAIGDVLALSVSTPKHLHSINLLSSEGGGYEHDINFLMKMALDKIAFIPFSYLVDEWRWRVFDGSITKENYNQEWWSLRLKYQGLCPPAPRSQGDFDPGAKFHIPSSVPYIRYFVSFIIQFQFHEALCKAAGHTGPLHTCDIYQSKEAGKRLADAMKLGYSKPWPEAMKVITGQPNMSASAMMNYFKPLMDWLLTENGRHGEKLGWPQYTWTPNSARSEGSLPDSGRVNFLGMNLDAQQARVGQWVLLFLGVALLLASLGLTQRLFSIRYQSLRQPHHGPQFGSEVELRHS
The experiment in a line: ACE inhibition assay with HHL substrate (Hayakari method). Type of assay: biochemical. Particulars: rabbit lung ACE; for inhibition at 100 µM: pH 8.3, read-out: Highest ACE-inhibitory value; for IC50: sodium phosphate pH 8.3, 37 °C, 10 min pre-incubation, 45 min reaction, absorbance 382 nm, non-linear fit, triplicate, read-out: IC50 against ACE. As for the experimental part: Inhibitory activities of peptides PepTry and PepChy and BTCI against ACE were performed according to Hayakari, et al. (1978) using the synthetic substrate hippuryl-L-histidyl-L-leucine (HHL)[71]. Briefly, ACE stock solution was obtained from rabbit lung in 10 mM sodium phosphate buffer, pH 8.3, and BTCI and peptides stock solutions were prepared in MilliQ water (m/v). Concentration of BTCI was estimated from spectrophotometric absorbance at 280 nm based A2801% = 8.23. Concentration of PepTry and PepChy were estimated according to Eq. 1. BTCI and peptides were diluted in 10 mM sodium phosphate buffer pH 8.3 to obtain concentrations ranging from 0 to 600 µM. Ten µL peptide solutions were pre-incubated with 10 µL of ACE containing 0.5 M NaCl at 37 °C for 10 min. […] The enzymatic reaction was terminated by adding a mixture containing 550 µL of 100 mM sodium phosphate pH 8.3 and 332.5 µL of 3% (m/v) 2,4,6-trichloro-s-triazine (TT) (in dioxane). The mixture was incubated for 5 min. at room temperature and then centrifuged at 1000 g for 10 min at 4 °C. The absorbance values of supernatants containing hippuric acid liberated from HHL were recorded at 382 nm using the Jasco Spectrophotometer V-530 (Jasco Analytical Instruments, Tokyo, Japan). IC50 values for peptides and BTCI were calculated from nonlinear regression curve of ACE residual activity (%) versus inhibitor concentration (µM) (BTCI, PepTry and PepChy) using Origin software (OriginLab Corporation, USA). The control was prepared containing only the substrate without enzyme solution. Assays were performed in triplicate.

In assay [3] the target is T3, trypsin (Bos taurus, UniProt P00760).
T3 sequence (P00760 24-246): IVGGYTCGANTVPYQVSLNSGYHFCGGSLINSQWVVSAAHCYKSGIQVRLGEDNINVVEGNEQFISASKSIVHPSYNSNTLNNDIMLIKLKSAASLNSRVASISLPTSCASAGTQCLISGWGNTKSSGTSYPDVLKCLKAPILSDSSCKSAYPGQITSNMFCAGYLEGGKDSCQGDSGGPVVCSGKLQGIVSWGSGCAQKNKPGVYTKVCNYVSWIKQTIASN
The experiment in a line: Inhibition of trypsin, residual activity with BAPNA substrate. Type of assay: biochemical. Particulars: pH 8.2, from fitted inhibition curves (GRAFIT), read-out: Inhibition constant Ki against trypsin. As for the experimental part:
as §1

Assay [4] concerns the target T1, chymotrypsin. Particulars: literature value; read-out: Inhibition constant Ki against chymotrypsin; cited from earlier work. As for the experimental part:
(§2) The inhibitory activities of BTCI and its derived peptides, PepTry and PepChy, were evaluated through the residual enzymatic activity of serine proteases trypsin and chymotrypsin in the presence of increasing concentrations of BTCI and its derived peptides (Fig. 2A–D). In the absence of BTCI and peptides, the proteases cleave BAPNA/GPNA substrates releasing the yellow-colored p-nitroanilide product corresponding to an enzymatic activity of 100%[39]. In the presence of BTCI and peptides, a gradual decay of the protease activities is observed. BTCI at approximately 6 µM and 40 µM inhibits trypsi ...

Assay [5] concerns the target T3, trypsin. Particulars: literature value; read-out: Inhibition constant Ki against trypsin; cited from earlier work. As for the experimental part:
as §2

Read-outs that look alike come from different tables or passages of the source. Where a SMILES comes first, the peptide text is derived from it. Bridges are numbered along the chain shown (N, C = ends).

As to `CC[C@H](C)[C@@H]1NC(=O)[C@H](CO)NC(=O)[C@H](Cc2ccccc2)NC(=O)[C@H]([C@@H](C)O)NC(=O)[C@@H](N)CSSC[C@@H](C(=O)O)NC(=O)[C@H](CCC(N)=O)NC(=O)[C@H](C)NC(=O)[C@@H]2CCCN2C1=O` [PepChy] (H-CTFSIPAQC-OH; disulfide 1-9), on chymotrypsin [1], the Ki (commonly the dissociation constant of the complex between target and ligand, obtained from inhibition or displacement) worked out at 121 µM. Further, in assay [2], the inhibition at 100 µM was about 98% and the IC50 (in general, the concentration needed to halve the response being measured) turned out to be 24.7 ± 1.1 µM.

Take `CC[C@H](C)[C@@H]1NC(=O)[C@H](CO)NC(=O)[C@H](CCCCN)NC(=O)[C@H]([C@@H](C)O)NC(=O)[C@@H](N)CSSC[C@@H](C(=O)O)NC(=O)[C@H](CCC(N)=O)NC(=O)[C@@H]2CCCN2C(=O)[C@@H]2CCCN2C1=O` [PepTry] (H-CTKSIPPQC-OH; disulfide 1-9): in assay [2], the inhibition at 100 µM is about 98% and the half-inhibitory concentration (IC50) turned out to be 24.4 ± 1.1 µM. Also, the inhibition constant (Ki) on trypsin [3] was determined as 0.119 µM.

For the molecule “BTCI: Bowman-Birk protease inhibitor purified from Vigna unguiculata (Cowpea) seeds; small protein, 9071 Da, seven disulfide bonds”, the Ki in the assay with chymotrypsin [4] is 0.115 µM.

B1: BTCI: Bowman-Birk protease inhibitor purified from Vigna unguiculata (Cowpea) seeds; small protein, 9071 Da, seven disulfide bonds (protein)
chain: SGHHEDSTDEASESSKPCCDRCECTKSIPPQCRCSDVRLNSCHSACKSCACTFSIPAQCFCGDINDFCYKPCKSSHSDDDDWN
modifications: seven intramolecular disulfide bonds; native protein purified from seeds (9071.6 Da)
Regarding B1, in the assay with trypsin [5], the Ki was 0.0059 µM. In addition, the IC50 in assay [2] came to 54.6 ± 2.9 µM.
